A short description of data set [1]: Hydrolytic stability study in DMSO and water (3:1). Type of data set: physicochemical. Conditions: 1 mg/mL. As for the experimental part:
General HPLC Procedure • Agilent, Waters X-Select C18, 2.5 μm, 4.6×30 mm column, 4 min method, 5-95% MeCN/water (0.1% formic acid). • Flow rate 2.5 ml/min • Column Oven Temperature 40° C. • Detection 254 nm.
Sample Preparation • A 1.0 mg sample of test compound was dissolved in 750 μL of DMSO. Water (250 μL) was added slowly, ensuring no precipitation occurred.
Recording Stability • A 50 μL aliquot of the test solution was removed and analysed in duplicate by 5 μL HPLC injections. The peak area for the test compound was recorded following manual integration of the corresponding UV trace. • The test solution was heated to 60° C., with stirring, and 50 μL aliquots removed for HPLC analysis at 5 and 24 h timepoints.

Data set [2] concerns d-U937 cells. The data set is described as follows: (a) LPS-induced TNFα/IL-8 release in d-U937 cells. The class given is cell-based. Conditions: Homo sapiens, dU937 cells. As for the experimental part: U937 cells, a human monocytic cell line, are differentiated into macrophage-type cells by incubation with PMA (100 ng/mL) for 48 to 72 hr. Cells are pre-incubated with final concentrations of test compound for 2 hr and are then stimulated with LPS (0.1 μg/mL; from E. Coli: O111:B4, Sigma) for 4 hr. The supernatant is collected for determination of TNFα and IL-8 concentrations by sandwich ELISA (Duo-set, R&D systems). […] The relative 50% effective concentration (REC50) is determined from the resultant concentration-response curve. The inhibition of IL-8 production is calculated at each concentration of test compound by comparison with vehicle control.

Data set [3] is described as follows: Hepatic microsomal stability, dog. Type of data set: in vitro ADME. The settings on record: pooled liver microsomes, read-out: Mean intrinsic clearance. The procedure: • Microsomal stability assays were performed with incubations of test compounds at 0.1 μM (n=2, final DMSO concentration 0.25%), and carried out using pooled human, […], rat and Cynomolgus macaque hepatic microsomes from Xenotech (Lots 1210153, 0810143 and 1110042, respectively) at 0.25 mg protein/mL in the presence of cofactor, NADPH. The incubations were performed at 37° C. with 100 μL aliquots taken from the incubation, at 0, 2, 5, 10 and 20 minutes (and, in the case of Cynomolgus macaque hepatic microsomes, 40 minutes) and reactions terminated by addition of 100 μL of acetonitrile containing carbamazepine as analytical internal standard. […] Half-life values were calculated from the relationship T1/2 (min)=−0.693/λ • where λ was the slope of the Ln concentration vs time curve. • The in vitro intrinsic clearance, Clint (mL/min/kg), was calculated and scaled to hepatic extraction ratios using the following scaling parameters and formulae.
Formulae Clint(tissue clearance) mL/min/kg=[0.693/t½ (min)]×[1/microsomal protein concentration mg/mL]×[mg microsomes/g liver]×[g liver/kg body weight] […] Half-life values were calculated from the relationship T1/2 (min)=−0.693/λ • where λ was the slope of the Ln concentration vs time curve. • Standard compounds testosterone, midazolam and 4-methylumbelliferone are included in the assay design.
(Liver microsomes are vesicles of endoplasmic reticulum, rich in cytochrome P450 enzymes.)

Data set [4] concerns the target CYP3A4 (Homo sapiens (Human), UniProt P08684). Nature of the data set: CYP450 time-dependent inhibition, CYP3A4. Type of data set: in vitro ADME. The procedure:
CYP450 time-dependent inhibition (TDI) assays were performed with test compound at six test concentrations, 0.062 μM to 15 μM (n=2). The test compounds was pre-incubated for 30 minutes with pooled human hepatic microsomes in 0.1 M Tris buffer, pH 7.4, at 37° C. in the presence of cofactor NADPH. A parallel series of incubations (n=2) were prepared with no pre-incubation. Probe substrates were then added (with additional cofactor) and further incubated for the times specified. Concentrations of probe substrates used in the incubations have been optimised to maintain first order reaction conditions.
Reactions were terminated with acetonitrile containing analytical internal standard (carbamazepine), samples then centrifuged to remove microsomal protein and analysed using optimised LC/MS-MS conditions. The MS data were normalised to internal standard and compared to the appropriate solvent controls to determine the amount of metabolite formed from the probe substrate relative to the “uninhibited” controls. The results are quoted as % inhibition.
Variation in probe turnover between plate wells means that inhibition values recorded below 10-15% may not be significant.

In data set [5] the test system is PBMCs. The data set is described as follows: (b) LPS-induced TNFα/IL-8 release in PBMC cells. The class given is cell-based. Conditions: Homo sapiens.
Data set [6] concerns PBMCs. Nature of the data set: (c) IL-2 and IFN gamma release in CD3/CD28 stimulated PBMC cells. Type of data set: cell-based. The settings on record: Homo sapiens, read-out: IC50 for Inhibition of Cytokine Release, IFNγ.
Data set [7] has as its target B-Raf (Homo sapiens (Human), UniProt P15056). The data set is described as follows: KINOMEscan enzyme binding assay, B-Raf. As for the experimental part: Kinase enzyme binding activities of compounds disclosed herein may be determined using a proprietary assay which measures active site-directed competition binding to an immobilized ligand (Fabian, M. A. et al., Nature Biotechnol., 2005, 23:329-336). These assays may be conducted by DiscoverX (formerly Ambit; San Diego, Calif.). The percentage inhibition produced by incubation with a test compound may be calculated relative to the non-inhibited control.

[8] abbreviates: read-out: IC50 for Inhibition of Cytokine Release, IL-8.
The mark [9] stands for this setting: read-out: IC50 for Inhibition of Cytokine Release, TNFα.

Where two headings read alike, the source gives them in different places. Bounds are passed on as bounds.

In general, IC50 refers to the concentration at which inhibition is half-maximal.

Sequence of CYP3A4 (P08684 whole entry): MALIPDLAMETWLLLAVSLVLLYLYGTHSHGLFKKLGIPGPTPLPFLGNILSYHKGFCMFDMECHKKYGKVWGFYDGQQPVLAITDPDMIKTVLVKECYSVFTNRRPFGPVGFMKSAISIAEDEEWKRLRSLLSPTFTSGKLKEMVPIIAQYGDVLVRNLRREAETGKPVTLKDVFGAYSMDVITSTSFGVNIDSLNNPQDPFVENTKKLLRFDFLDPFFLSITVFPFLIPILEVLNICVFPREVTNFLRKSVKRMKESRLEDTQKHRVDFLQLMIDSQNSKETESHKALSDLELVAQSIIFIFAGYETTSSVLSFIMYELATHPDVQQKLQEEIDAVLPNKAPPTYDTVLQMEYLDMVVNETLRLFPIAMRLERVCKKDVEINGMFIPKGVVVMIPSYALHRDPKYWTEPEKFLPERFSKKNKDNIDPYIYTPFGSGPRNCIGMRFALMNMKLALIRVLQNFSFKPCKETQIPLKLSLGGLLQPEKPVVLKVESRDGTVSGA
Sequence of B-Raf (P15056 whole entry): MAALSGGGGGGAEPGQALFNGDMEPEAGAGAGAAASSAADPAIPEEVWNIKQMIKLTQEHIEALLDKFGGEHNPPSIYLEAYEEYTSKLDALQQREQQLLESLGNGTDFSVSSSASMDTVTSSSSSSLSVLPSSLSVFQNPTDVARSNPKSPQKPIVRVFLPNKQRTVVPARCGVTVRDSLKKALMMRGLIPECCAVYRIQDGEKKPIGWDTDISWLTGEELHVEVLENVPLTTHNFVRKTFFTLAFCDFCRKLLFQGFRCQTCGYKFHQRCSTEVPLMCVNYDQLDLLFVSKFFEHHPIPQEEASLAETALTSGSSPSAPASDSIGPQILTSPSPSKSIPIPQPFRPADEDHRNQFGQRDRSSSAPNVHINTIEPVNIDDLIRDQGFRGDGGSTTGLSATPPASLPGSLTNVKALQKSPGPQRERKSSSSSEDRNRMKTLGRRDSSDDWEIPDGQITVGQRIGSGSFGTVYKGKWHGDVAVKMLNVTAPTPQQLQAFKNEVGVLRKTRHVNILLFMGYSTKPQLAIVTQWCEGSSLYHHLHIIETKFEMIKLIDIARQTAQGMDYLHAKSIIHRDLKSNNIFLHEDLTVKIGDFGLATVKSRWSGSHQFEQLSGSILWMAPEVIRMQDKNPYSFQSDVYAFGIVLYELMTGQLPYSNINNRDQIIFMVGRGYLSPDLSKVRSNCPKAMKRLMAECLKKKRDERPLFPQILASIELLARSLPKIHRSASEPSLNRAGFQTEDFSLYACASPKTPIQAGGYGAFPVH

On to `C#Cc1cc(Nc2nccc(Oc3ccc(NC(=O)Nc4cc(C(C)(C)C)nn4-c4ccc(C)cc4)c4ccccc34)n2)cc(C(=O)NCCOCCOCCOC)c1` [Example 2, 3-((4-((4-(3-(3-(tert-Butyl)-1-(p-tolyl)-1H-pyrazol-5-yl)ureido)naphthalen-1-yl)oxy)pyrimidin-2-yl)amino)-5-ethynyl-N-(2-(2-(2-methoxyethoxy)ethoxy)ethyl)-benzamide], for which the “% left” value in data set [1] (0 min) turned out to be 100%; in data set [1] (60° C., 300 min), 83%; in data set [1] (60° C., 1440 min), 39%. Besides, the IC50 in data set [2] (setting [8]) was 0.5 nM; in data set [2] (setting [9]), 0.5 nM; in data set [4] (CYP3A4, 0 min preincubation), above 15000 nM; in data set [4] (CYP3A4, 30 min preincubation), 7700 nM; in data set [5] (setting [8]) it was 2 nM; in data set [5] (setting [9]) it was 0.7 nM. The IC50 in data set [6] worked out at 2.5 nM. The microsomal CLint at 0.1 μM in data set [3] is above 554 µL/min/mg. The inhibition at 0 min, 15 µM in data set [4] (human, pooled human liver microsomes, pH 7.4, CYP3A4, 0 min preincubation, 15 μM, read-out: 15 μM % Inh) came out at 2%. For the same compound, the inhibition at 30 min, 15 µM in data set [4] (human, pooled human liver microsomes, pH 7.4, CYP3A4, 30 min preincubation, 15 μM, read-out: 15 μM % Inh) amounted to 52%. For the same compound, in data set [7], the “effect on the binding of B-Raf to its standard ligand” value is “did not have any effect”.

Source of the values: US10301288B2, “Kinase inhibitors” (Topivert Pharma Limited, priority 2013, dated 2019).
